Results from BindingDB's records for doi:10.1021/jo015665d (Merck Research Laboratories, 2001).

These molecules were tested against Polymerase acidic protein (Influenza A virus (strain A/Puerto Rico/8/1934 H1N1), UniProt P03433) (assay: Inhibition of cap 1 ALMV primed Influenza transcriptase).

| SMILES | IC50 |
| --- | --- |
| COCOn1c(=O)c(=Cc2ccccc2)[nH]c(=CC(C)C)c1=O | > 200 µM |
| COCOn1c(=O)c(=Cc2ccc(F)cc2)[nH]c(=CC(C)C)c1=O | > 200 µM |
| COCOn1c(=O)c(=Cc2cccc(F)c2)[nH]c(=CC(C)C)c1=O | > 200 µM |
| COCOn1c(=O)c(=Cc2ccccc2F)[nH]c(=CC(C)C)c1=O | > 200 µM |
| COCOn1c(=O)c(=Cc2ccccc2)[nH]c(=Cc2ccc(F)cc2)c1=O | > 200 µM |
| COCOn1c(=O)c(=Cc2ccc(OC)cc2)[nH]c(=CC(C)C)c1=O | > 200 µM |
| COCOn1c(=O)c(=Cc2ccccc2)[nH]c(=Cc2ccc(OC)cc2)c1=O | > 200 µM |
| CC(C)C=c1[nH]c(=Cc2ccc(F)cc2)c(=O)[nH]c1=O [3-(4-fluorobenzylidene)-5-isobutylpyrazine-2,6(1H,3H)-dione] | > 200 µM |
| COCOn1c(=O)c(=CC(C)C)[nH]c(=CC(C)C)c1=O [(3Z)-5-isobutyl-1-(methoxymethoxy)-3-(2-methylpropylidene)pyrazine-2,6(1H,3H)-dione] | > 200 µM |
